Laboratory results as given in patent publication US20040109903A1, “Method for extended storage of viable and pathogen-safe blood and blood components using carbon monoxide” (priority 2002, published 2004).

Tests used:
Yersinia Enterocolitica = experiment: Growth of inoculated Yersinia Enterocolitica in whole blood under different atmospheres; format: cell-based; settings: room temperature, about 20 bacteria per ml inoculated, compared with air (FIG. 1)
Description: Freshly drawn whole blood was obtained from a human donor under sterile conditions, and stored in gas impermeable bags having a volume of at least 1.5 times that of the blood volume. The gas environment (or atmosphere) in the bag was then replaced by an atmosphere containing sterile CO by applying a low level vacuum with a water pump of 20 mm Hg. CO was immediately flushed through a 0.25 micron sterile filter. The bag was sealed and agitated for 15 minutes to allow equilibration. This procedure was repeated three times thereby exchanging the atmosphere in the bag and blood with CO. Saturation with carbon monoxide can be identified in hemoglobin in samples of the treated blood according to typical changes of the light absorption spectrum of the hemoglobin in the visible region by a shift from 577 nm (typical of oxy-hemoglobin) to 569 nm (typical of carbomonoxy-hemoglobin).
(§1) Control blood samples were packed under air in the same containers without any additional treatment allowing air transfer. In some experiments control of inert gas like nitrogen were used to exchange the air in the same manner as CO.
Whole blood or its factions were inoculated with pathogenic bacteria. Growth of the bacteria at room temperature was followed under different atmospheres (gas environments ). […]

Bulkholderia cepasea = experiment: Growth of inoculated Bulkholderia cepasea in platelets stored as PRP; format: cell-based; settings: 20-24° C., inoculated at 12 CFU/ml, compared with air (FIG. 5)
Description: (§2) PC fractions were identically prepared from CO pretreated or untreated blood by consecutive centrifugation in a sterile environment using blood bank conditions. Bicarbonate (4% of PC volume) is than added from a stock solution of 750 mM while agitation to yield a final bicarbonate concentration of 30 mM. […] Alternatively, rather than applying a vacuum, the containers were flushed for 10 min. with sterile CO while agitating the containers, which were then sealed. The containers were allowed to stay at room temperature of 20-24° C.PRP platelets were treated similarly.
(§3) Control blood samples were packed under air in the same containers without any additional treatment allowing air transfer. In some experiments control of inert gas like nitrogen were used to exchange the air in the same manner as CO. […]
(§4) For FIGS. 2-6, platelets were stored as PRP with agitation at room temperature (20-24° C.) in a blood bank rocking plane as for regular blood bank under air with gas exchange option (AIR); or sealed under nitrogen atmosphere (N2) or carbon monoxide atmosphere (CO). […] The amount of inoculated bacteria was adjusted to a range of 10-100 CFU/ml before inoculation, in which the exact final number of bacteria was been measured by plating the stock on suitable agar plates allowing growth and counting (the final initial counts are given in each case).

Bacilus cereus = experiment: Growth of inoculated Bacilus cereus in platelets stored as PRP; format: cell-based; settings: 20-24° C., inoculated at 18 CFU/ml, compared with air (FIG. 2)
Description: as §2, §3, §4

Pseudomonas aeraginosa = experiment: Growth of inoculated Pseudomonas aeraginosa in platelets stored as PRP; format: cell-based; settings: 20-24° C., inoculated at 16 CFU/ml, compared with air (FIG. 4)
Description: as §2, §3, §4

E. coli (strain O 157) = experiment: Growth of inoculated E. coli in platelets stored as PRP; format: cell-based; settings: 20-24° C., inoculated at 25 CFU/ml, compared with air (FIG. 3)
Description: as §2, §3, §4

Staphilococcus aereus = experiment: Growth of inoculated Staphilococcus aereus in platelets stored as PRP; format: cell-based; settings: 20-24° C., inoculated at 18 CFU/ml, compared with air (FIG. 6)
Description: as §2, §3, §4

human body = settings: cited from earlier work
platelets [1] = experiment: Ability of stored platelets to aggregate upon activation by collagen (Plateletworks kit); format: cell-based, human
Description: An assessment of the potential of platelets to form aggregates upon activation by an agonist, preferably collagen, a typical physiological agonist, was performed, to determine the potential effect of carbon monoxide on this physiological function of platelets. The assay was performed as follows.
Fresh blood bank platelets, prepared as platelet concentrates (PC), were used. Each PC unit was divided. One part was stored without carbon monoxide treatment, which is the current method of preserving PC in blood banks. The other portion was sealed under carbon monoxide as previously described. Samples were preserved under sterile conditions at 20-23° C., while shaking gently. The ability of platelets to aggregate upon activation by collagen as an agonist was tested daily using a kit by Helena Laboratories (USA), called the Plateletworks kit. To allow platelet count and reduce anticoagulant activity, the PC was diluted 1:10 with the physiological buffer PBS pH 7.3. The whole individual platelets present were counted prior and after addition of the agonist, for this example collagen.
Therefore, the stored PC samples (control and stored under carbon monoxide) were tested for their ability to aggregate following two hours shaking under air after being removed from storage.

Salmonella thyphimurium [2] = experiment: Growth of Salmonella thyphimurium in cells-free plasma; format: cell-based; settings: plasma alone as source of nutrition (FIG. 8)
Excerpt: Whole blood or its factions were inoculated with pathogenic bacteria. Growth of the bacteria at room temperature was followed under different atmospheres (gas environments ). The blood fractions were platelets in plasma (PRP); concentrated platelets (PC) as currently stored in blood banks after removal of about three quarters of the plasma and the cell-free blood plasma.
FIG. 8 compares the growth of Salmonella thyphimurium in cells-free plasma under AIR, N2 and CO.

platelets [3] = experiment: Platelet viability: leakage of LDH from stored platelets; format: cell-based, human
Description: (§5) PC fractions were identically prepared from CO pretreated or untreated blood by consecutive centrifugation in a sterile environment using blood bank conditions. Bicarbonate (4% of PC volume) is than added from a stock solution of 750 mM while agitation to yield a final bicarbonate concentration of 30 mM. Next, the PC is treated with CO in a similar manner to whole blood. Alternatively, rather than applying a vacuum, the containers were flushed for 10 min. with sterile CO while agitating the containers, which were then sealed. The containers were allowed to stay at room temperature of 20-24° C.PRP platelets were treated similarly.
The viability of the platelets under storage was tested in the form of PC because platelets are currently stored in this form, in order to be able to store and use the extra plasma in PRP separately. However, the PC environment lacks both red cells and plasma, such that platelets in this environment are more sensitive than in the PRP form to loss of viability. Without wishing to be limited to a single hypothesis, platelets in the form of PC may experience changes in pH, and therefore may lose the necessary pH neutrality of the environment. The viability of platelets stored as PC was investigated according to two parameters: drop of pH of the environment, and loss of membrane integrity of the cells themselves, leading to leakage of cellular proteins.
With regard to leakage of LDH, cell viability can also be evaluated according to membrane integrity. LDH (lactic dehydrogenase) is a stable enzyme which is normally active inside cells; when these cells have loss of membrane integrity, LDH is leaked outside the cells, such that higher levels of LDH activity are correlated with reduced platelet viability. The presence of LDH activity in platelet-free solution samples was measured in order to assess the viability of the platelet-containing fractions from which the samples were taken. […]

Salmonella thyphimurium [4] = experiment: Growth of Salmonella thyphimurium in PRP or PC fractions; format: cell-based; settings: compared with air (FIG. 7)
Description: as §5, §1
Whole blood or its factions were inoculated with pathogenic bacteria. Growth of the bacteria at room temperature was followed under different atmospheres (gas environments ). The blood fractions were platelets in plasma (PRP); concentrated platelets (PC) as currently stored in blood banks after removal of about three quarters of the plasma and the cell-free blood plasma. […]

platelets [5] = settings: via binding to Guanylate Cyclase; Brune and Ullrich 1987; cited from earlier work
platelets [6] = settings: autologous transfusions performed in primates; cited from earlier work
bacteria = settings: upon photoactivation; Gambro BCT abstracts 2001; cited from earlier work

Compound | growth of inoculated Yersinia Enterocolitica in whole blood (Yersinia Enterocolitica) | growth of Bulkholderia cepasea in PRP (Bulkholderia cepasea) | growth of Bacilus cereus in PRP (Bacilus cereus) | growth of Pseudomonas aeraginosa in PRP (Pseudomonas aeraginosa) | growth of E. coli (strain O 157) in PRP (E. coli (strain O 157)) | growth of Staphilococcus aereus in PRP (Staphilococcus aereus) | safety threshold or TLV, equivalent inhalation (human body; equivalent of 8 hours per day at 20 ppm) | safety threshold or TLV for the human body (human body; inhalation of 8 hours per day of air containing the gas) [ppm] | ability to aggregate in response to collagen (platelets [1]; PC stored under carbon monoxide, carbon monoxide replaced by air) | formation of aggregates upon exposure to collagen (platelets [1]; PC stored under carbon monoxide, tested immediately after being exposed to air) | fraction of platelets able to form aggregates (platelets [1]; PC, day 11, two hours shaking under air after storage, compared with same PC unit stored under air (FIGS. 11A-11C)) | growth of Salmonella thyphimurium in cells-free plasma (Salmonella thyphimurium [2]) | LDH activity in the supernatant, a measure of leakage (platelets [3]; PC, air vs CO vs CO with sodium bicarbonate (FIG. 10)) | viability of platelets in PC (LDH leakage) (platelets [3]; PC, no additional bicarbonate, compared with air (FIG. 10)) | leakage of LDH (LDH activity in supernatant), platelets stored as PRP (platelets [3]; PRP, compared with air, data not shown) | growth of Salmonella thyphimurium in PC (Salmonella thyphimurium [4]; PC, count at time zero 32 CFU/ml) | growth of Salmonella thyphimurium in PRP (Salmonella thyphimurium [4]; PRP, count at time zero 16 CFU/ml) | aggregation of platelets (platelets [5]) | platelet survival rates (platelets [6]) | effectiveness for bacterial inactivation (bacteria)
N#N [nitrogen, reference compound] | completely inhibited | little or no effect | little or no effect | little or no effect | little or no effect | little or no effect | – | – | – | – | – | – | – | – | – | – | – | – | – | –
[C-]#[O+] [carbon monoxide] | completely inhibited | eliminated | significantly inhibited | significantly inhibited | significantly inhibited | significantly inhibited | 10^4 ppm/minute | 20 | regained their ability to aggregate | did not form aggregates | larger fraction | inhibition of pathogen growth was maintained | similar, high levels | lost much faster than stored in air | equal or even somewhat lower than under air | inhibited | significantly inhibited | can inhibit aggregation | – | –
Cc1cc2nc3c(=O)[nH]c(=O)nc-3n(C[C@H](O)[C@H](O)[C@H](O)CO)c2cc1C [riboflavin] | – | – | – | – | – | – | – | – | – | – | – | – | – | – | – | – | – | – | may even decrease platelet survival rates | variable effectiveness
